The results in this text go back to patent US20050215548A1 (Cyclacel Limited, priority 2002, published 2005).

For one series, the target named is T1, HDM2 (Homo sapiens, UniProt Q00987).
T1 construct: Recombinant HDM2 (1.5 μg per well) in TBS-BSA buffer
Nature of the series: Fluorescence polarisation competitive HDM2 binding assay. On the procedure: This was carried out using a 96-well microtiter plate (Costar) format. Recombinant HDM2 (1.5 μg per well) in TBS-BSA buffer (50 mM Tris pH 7.4, 150 mM NaCl, and 0.1% BSA) was incubated for 5 min at room temperature in the presence of serially diluted test compound (in TBS-BSA buffer with a final concentration of 5% DMSO). Fluorescently labelled p53-derived peptide (fluorescein-[…]NH2, 0.2 μM) was added to each well and the plate was incubated at room temperature for 45 min. The fluorescence polarisation (excitation 485 nm, emission 520 nm) of the peptide was measured. IC50 values were calculated from dose-response curves.
(§1) The fluorescence polarisation competitive HDM2 binding assay described in Example 3 was used. Furthermore, the anti-proliferative potency of the compounds against three human tumour cell lines with different genetic make-up was also determined. […] The cell lines used were as follows: AGS, gastric adenocarcinoma, wild-type p53; H1299, large cell lung carcinoma, p53 null, low HDM2; SJSA-1, primitive multipotential bone sarcoma, wild-type p53, overexpressed HDM2.
In general terms: In fluorescence polarisation assays a small probe gives low polarisation when free and higher when bound to something large.

A further series deals with p53. Nature of the series: p53 reporter gene assay (U2OS-derived luciferase reporter cell line). The note with it: for Fold induction of luciferase activity: compared to basal luciferase activity, 16-h time point, at concentration of maximal induction; for Concentration (test compound concentration at which the p53 induction was maximal): p53 reporter, U2OS-derived cell line. In general terms: In a reporter assay the amount or activity of a reporter protein is the signal.

The test system of another series is H1299. Nature of the series: 72-h MTT cytotoxicity assay, H1299. Type of series: cell-based. To be noted: Homo sapiens, NCI-H1299; 72-h MTT; Table 1; read-out: IC50 Anti-proliferative effect on cell line H 1299. On the procedure:
as §1
(§2) Representative bisarylsulfonamide compounds were tested on a panel of transformed and non-transformed human cell lines, using a standard 72-h MTT cytotoxicity assay [Haselsberger K et al, ibid].
On the technique in general: Formazan colour is commonly taken as a measure of viable cells.

Another series deals with SJSA-1. Nature of the series: 72-h MTT cytotoxicity assay, SJSA-1. Type of series: cell-based. The note with it: Homo sapiens, SJSA-1; 72-h MTT; Table 1; read-out: IC50 Anti-proliferative effect on cell line SJSA-1. On the procedure:
as §1, §2

For a further series, the system named is AGS. Nature of the series: 72-h MTT cytotoxicity assay, AGS. The series is classed as cell-based. To be noted: Homo sapiens, 72-h MTT, Table 1, read-out: IC50 Anti-proliferative effect on cell line AGS. On the procedure:
as §1, §2

The mark [1] stands for this setting: fluorescence polarisation assay, Table 3, read-out: In vitro competitive HDM2 binding assay IC50.
[2] abbreviates: fluorescence polarisation format, Table 1, read-out: IC50 In vitro competitive HDM2 binding assay.

Read-outs that look alike come from different tables or passages of the source. Marks after values point to notes of the source that are not given here. Non-standard residues stand in square brackets, D forms with d. Residues, ends and D or L forms follow the SMILES beside them. Trp(6-Cl) = N[C@@H](Cc1c[nH]c2cc(Cl)ccc12)C(=O)O; Pmp = N[C@@H](Cc1ccc(CP(=O)(O)O)cc1)C(=O)O; Ac3c = NC1(C(=O)O)CC1; Aib = CC(C)(N)C(=O)O

T1 sequence (Q00987 whole entry): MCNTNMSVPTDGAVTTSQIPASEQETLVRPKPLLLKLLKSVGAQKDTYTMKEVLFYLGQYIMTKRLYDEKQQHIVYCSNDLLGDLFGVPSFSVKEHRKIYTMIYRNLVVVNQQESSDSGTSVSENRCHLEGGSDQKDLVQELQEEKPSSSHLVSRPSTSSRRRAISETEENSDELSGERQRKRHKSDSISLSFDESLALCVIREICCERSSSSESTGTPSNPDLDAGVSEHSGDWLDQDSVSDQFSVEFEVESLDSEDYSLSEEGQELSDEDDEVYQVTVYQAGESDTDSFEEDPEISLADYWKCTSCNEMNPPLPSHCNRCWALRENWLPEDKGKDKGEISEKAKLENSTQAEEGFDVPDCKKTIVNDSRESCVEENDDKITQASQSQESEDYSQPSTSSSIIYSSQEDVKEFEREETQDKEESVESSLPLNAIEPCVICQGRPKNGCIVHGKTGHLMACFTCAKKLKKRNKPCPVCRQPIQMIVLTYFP

For orientation: IC50 means the concentration that gives 50% inhibition. On to `O=S(=O)(Nc1ccc(F)cc1)c1cc(Br)c(Cl)s1` [Compound 4, 4-Bromo-5-chlorothiophene-2-sulfonic acid (4-fluorophenyl)amide], for which the IC50 at HDM2 (setting [1]) and at HDM2 (setting [2]) was 378 µM each time. The “Fold induction of luciferase activity” value in the series with p53 was less than 2 fold. Besides, the “Concentration (test compound concentration at which the p53 induction was maximal)” value (“Concentration” for short) in the series on p53 was 100^e μM.

In the case of `O=S(=O)(Nc1ccc(C(F)(F)F)cc1)c1cc(S(=O)(=O)Nc2ccc(C(F)(F)F)cc2)c(Cl)s1` [Compound 33, 5-Chlorothiophene-2,4-disulfonic acid bis-[(4-trifluoro-methyl-phenyl)-amide]], the half-maximal inhibitory concentration (IC50) on HDM2 (setting [2]) is 65 ± 5 µM; in the series on H1299, 69 ± 1 µM; in the series with SJSA-1, more than 100 µM; in the series with AGS, 68 ± 1 µM.

As to `O=[N+]([O-])c1cc(S(=O)(=O)Nc2ccc(C(F)(F)F)cc2)ccc1Cl` [Compound 35, 4-Chloro-3-nitro-N-(4-trifluoromethylphenyl)benzenesulfonamide], the IC50 on HDM2 (setting [2]) came to 192 ± 8 µM; with H1299 it was 9.3 ± 1.7 µM; with SJSA-1, 26.5 ± 1.6 µM; with AGS, 13 ± 3.3 µM.

With `O=S(=O)(Nc1cc(C(F)(F)F)cc(C(F)(F)F)c1)c1cnc(Cl)c(Br)c1` [Compound 42, 5-Bromo-6-chloropyridine-3-sulfonic acid (3,5-bis-trifluoromethylphenyl)amide], the concentration for half-maximal inhibition (IC50) came out at 278 ± 50 µM at HDM2 (setting [2]), 32 ± 7 µM with H1299, 65 ± 18 µM in the series with SJSA-1 and 30 ± 7 µM in the series with AGS.

With `Cn1ncc(-c2ccc(S(=O)(=O)Nc3cc(C(F)(F)F)cc(C(F)(F)F)c3)s2)c1C(F)(F)F` [Compound 43, 5-(1-Methyl-5-trifluoromethyl-1H-pyrazol-4-yl)-thiophene-2-sulfonic acid (3,5-bis-trifluoromethylphenyl)amide], the half-inhibitory concentration (IC50) stood at 133 ± 11 µM at HDM2 (setting [2]), 18 ± 0.8 µM in the series on H1299, 33.7 ± 0.3 µM in the series on SJSA-1 and 20.9 ± 1 µM in the series on AGS.

Regarding `O=[N+]([O-])c1cc(S(=O)(=O)Nc2cc(C(F)(F)F)cc(C(F)(F)F)c2)sc1Cl` [Compound 44, 5-Chloro-4-nitrothiophene-2-sulfonic acid (3,5-bis-trifluoromethyl-phenyl)-amide], the IC50 at HDM2 (setting [2]) was 25.4 ± 0.2 µM; in the series on H1299, 14 ± 2 µM; in the series with SJSA-1 it was 19 ± 3 µM; with AGS, 10 µM.

Regarding `O=[N+]([O-])c1cc(S(=O)(=O)Nc2cc(Cl)cc(Cl)c2)ccc1Cl` [Compound 47, 4-Chloro-N-(3,5-dichlorophenyl)-3-nitro-benzenesulfonamide], the IC50 was 234 ± 37 µM on HDM2 (setting [2]), 18 ± 8 µM in the series with H1299, 37 ± 6 µM with SJSA-1 and 23 ± 2 µM in the series with AGS.

On to `CN(c1ccc(Cl)cc1)S(=O)(=O)c1cc([N+](=O)[O-])c(Cl)s1` [Compound 51, 5-Chloro-4-nitrothiophene-2-sulfonic acid (4-chloro-phenyl)-methylamide], for which the 50% inhibitory concentration (IC50) on HDM2 (setting [2]) was determined as 5.9 ± 0.7 µM; in the series with H1299, 17.4 ± 3.8 µM; with SJSA-1, 15.6 µM; with AGS, 11.3 ± 1 µM.

Consider `CN(Cc1ccc(C(F)(F)F)cc1)S(=O)(=O)c1cc([N+](=O)[O-])c(Cl)s1` [Compound 52, 5-Chloro-4-nitrothiophene-2-sulfonic acid methyl-(4-trifluoromethylbenzyl)amide], for which the IC50 at HDM2 (setting [2]) was determined as 10.7 ± 0.2 µM; in the series with H1299, 28.5 ± 1.9 µM; in the series on SJSA-1 it was 27.5 ± 1.3 µM; with AGS it was 23.3 ± 1.4 µM.

As to `O=[N+]([O-])c1cc(S(=O)(=O)NCc2ccc(Cl)cc2)sc1Cl` [Compound 56, 5-Chloro-4-nitro-thiophene-2-sulfonic acid 4-chloro-benzylamide], the IC50 was 24.8 ± 5.4 µM at HDM2 (setting [2]), 6.3 ± 1.9 µM in the series on H1299, 9.3 ± 2.7 µM with SJSA-1 and 4.3 ± 0.6 µM in the series with AGS.

As to `CC(=O)Sc1sc(S(=O)(=O)Nc2ccc(Cl)cc2)cc1[N+](=O)[O-]` [Compound 72, Thioacetic acid S-[5-(4-chloro-phenylsulfamoyl)-3-nitro-thiophen-2-yl] ester], the IC50 on HDM2 (setting [2]) stood at 16.2 µM; with AGS, 61 µM.

As to `Cc1sc(S(=O)(=O)Nc2ccc(Cl)cc2)cc1[N+](=O)[O-]` [Compound 73, 5-Methyl-4-nitro-thiophene-2-sulfonic acid (4-chloro-phenyl)-amide], the values for the IC50 at HDM2 (setting [2]), with H1299 and in the series on AGS were more than 167 µM, 66 µM and 53 µM, respectively.

As for `COc1ccc(S(=O)(=O)Nc2cc(C(F)(F)F)cc(C(F)(F)F)c2)cc1Cl` [Compound 104, N-(3,5-Bis-trifluoromethyl-phenyl)-3-chloro-4-methoxy-benzene-sulfonamide], the IC50 at HDM2 (setting [2]) is 151 ± 26 µM; with AGS, 25 µM.

In the case of `O=S(=O)(Nc1ccc(Cl)cc1)c1cc(Br)c(Br)s1` [Compound 125, 4,5-Dibromo-thiophene-2-sulfonic acid (4-chloro-phenyl)-amide], the concentration for half-maximal inhibition (IC50) at HDM2 (setting [2]) was found to be 198 ± 17 µM.

As to `O=S(=O)(Nc1ccc(C(F)(F)F)cc1)c1cc(Br)c(Br)s1` [Compound 126, 4,5-Dibromo-thiophene-2-sulfonic acid (4-trifluoromethyl-phenyl)-amide], the IC50 at HDM2 (setting [2]) was determined as 163 ± 27 µM.

As to `O=S(=O)(NCc1ccc(F)cc1)c1cc(Cl)c(O)c(Cl)c1` [Compound 127, 3,5-Dichloro-N-(4-fluoro-benzyl)-4-hydroxy-benzenesulfonamide], at HDM2 (setting [2]), the concentration for half-maximal inhibition (IC50) was 325 ± 24 µM.

As to `O=S(=O)(Nc1cc(C(F)(F)F)cc(C(F)(F)F)c1)c1c(Cl)cccc1Cl` [Compound 128, N-(3,5-Bis-trifluoromethyl-phenyl)-2,6-dichloro-benzenesulfonamide], the results for the IC50 on HDM2 (setting [2]) and in the series on AGS were 134 ± 28 µM and 53 µM, respectively.

In the case of `COc1ccc(NS(=O)(=O)c2cc([N+](=O)[O-])c(Cl)s2)c(C)c1` [Compound 129, 5-Chloro-4-nitro-thiophene-2-sulfonic acid (4-methoxy-2-methyl-phenyl)-amide], the half-maximal inhibitory concentration (IC50) on HDM2 (setting [1]) was found to be 278 ± 19 µM. Moreover, at HDM2 (setting [2]), the IC50 was 278 ± 19 µM. In the series with p53, the “Fold induction of luciferase activity” value amounted to 5 fold and the “Concentration” value was 100 µM.

Turning to `O=[N+]([O-])c1cc(S(=O)(=O)Nc2ccc(Cl)cc2)sc1N1CCCC(O)C1` (stereo not shown) [Compound 130, 5-(3-Hydroxy-piperidin-1-yl)-4-nitro-thiophene-2-sulfonic acid (4-chloro-phenyl)-amide], at HDM2 (setting [2]), the 50% inhibitory concentration (IC50) was found to be 64 ± 1 µM.

Consider `O=[N+]([O-])c1ccc(NS(=O)(=O)c2cc([N+](=O)[O-])c(Cl)s2)cc1` [Compound 131, 5-Chloro-4-nitro-thiophene-2-sulfonic acid (4-nitro-phenyl)-amide], for which the half-inhibitory concentration (IC50) at HDM2 (setting [2]) is 41 ± 4 µM.

`CSCC[C@H](NC(=O)[C@@H](N)Cc1ccccc1)C(=O)NC(C)(C)C(=O)N[C@@H](Cc1ccc(CP(=O)(O)O)cc1)C(=O)N[C@@H](Cc1c[nH]c2cc(Cl)ccc12)C(=O)N[C@@H](CCC(=O)O)C(=O)NC1(C(=O)N[C@@H](CC(C)C)C(N)=O)CC1` [Control, H-Phe-Met-Aib-Pmp-(6-Cl-Trp)-Glu-Ac3c-Leu-NH2, reference compound] (H-FM[Aib][Pmp][Trp(6-Cl)]E[Ac3c]L-NH2) returned a half-inhibitory concentration (IC50) at HDM2 (In vitro competitive HDM2 binding assay IC50, fluorescence polarisation assay, Table 3) of 0.19 µM. For the same compound, in the series with p53, the “Fold induction of luciferase activity” value was found to be 4 fold and the “Concentration” value was in the range of 150 to 200 µM.
